Blank lines part the entries; values can stand above or below the molecule they belong to.
Tests used:
[1] = Inhibition of Cyclin dependent kinase 2-cyclinA
MDA-MB-435 [2] = assay: Inhibitory concentration was measured by the incorporation of [14C]-thymidine in (human breast carcinoma) MDA-MB-435 cell line; type: functional, cell-based
[3] = target: T1, Cyclin-dependent kinase 4/cyclin D (Homo sapiens, UniProt P11802)
Description: Inhibition of Cyclin-dependent kinase 4-cyclinD

[4] = target: Cyclin-dependent kinase 2/cyclin A (Homo sapiens, UniProt P24941)
Description: Inhibition of Cyclin dependent kinase 2-cyclin A

MDA-MB-435 [5] = assay: Inhibitory concentration was measured by the incorporation of [14C]thymidine in (human breast carcinoma) MDA-MB-435; type: functional, cell-based
[6] = target: Fibroblast growth factor receptor (Homo sapiens, UniProt P22607+P11362+P22455+P21802); assay: Inhibition of Fibroblast growth factor receptor; type: protein assay
MDA-MB-468 [7] = assay: Inhibitory concentration was measured by the incorporation of [14C]thymidine in (human breast carcinoma) MDA-MB-468 cell line; type: functional, cell-based
[8] = target: T1, Cyclin-dependent kinase 4/cyclin D; assay: Inhibition of [gamma-32P]-ATP binding to Cyclin dependant kinase 4-cyclinD; type: protein-complex assay
MDA-MB-435 [9] = assay: In vitro inhibitory concentration was measured by the incorporation of [14C]thymidine in (human breast carcinoma) MDA-MB-435 cell line; type: functional, cell-based
[10] = target: Cyclin-dependent kinase 2/cyclin E (Homo sapiens, UniProt P24941); assay: Inhibition of Cyclin dependent kinase 2-cyclin E; type: protein-complex assay
[11] = Inhibition of PDGF receptor
MDA-MB-468 [12] = assay: In vitro inhibitory concentration was measured by the incorporation of [14C]thymidine in (human breast carcinoma) MDA-MB-468 cell line; type: functional, cell-based

IC50 (MDA-MB-435 [2]): 330 nM | IC50 [3]: 13 nM | IC50 [4]: 3800 nM
SMILES: COCc1cc2cnc(Nc3ccc(N4CCNCC4)cn3)nc2n(C2CCCC2)c1=O

IC50 (MDA-MB-435 [2]): 290 nM
SMILES: Cc1cc2cnc(Nc3ccc(N4CCNCC4)cn3)nc2n(C2CCCC2)c1=O

IC50 (MDA-MB-435 [5]): 2770 nM
SMILES: CC(=O)c1cc2cnc(Nc3ccc(N4CCNCC4)cn3)nc2n(C2CCCC2)c1=O

IC50 (MDA-MB-435 [2]): 2150 nM
SMILES: COCCOCc1cc2cnc(Nc3ccc(N4CCNCC4)cn3)nc2n(C2CCCC2)c1=O

IC50 [3]: 49 nM
SMILES: CCOC(=O)c1c(C)c2cnc(Nc3ccc(N4CCNCC4)cn3)nc2n(C2CCCC2)c1=O

IC50 (MDA-MB-435 [2]): 1080 nM | IC50 [3]: 22 nM | IC50 [4]: > 5000 nM
SMILES: CCc1cc2cnc(Nc3ccc(N4CCNCC4)cn3)nc2n(C2CCCC2)c1=O

IC50 [8]: 37 nM
SMILES: CCOCCOc1cc2cnc(Nc3ccc(N4CCNCC4)cn3)nc2n(C2CCCC2)c1=O

IC50 (MDA-MB-435 [5]): 1400 nM
SMILES: Cc1c(Br)c(=O)n(C2CCCC2)c2nc(Nc3ccc(N4CCC(O)CC4)cn3)ncc12

IC50 [6]: > 5000 nM | IC50 [10]: > 5000 nM | IC50 (MDA-MB-468 [7]): > 3000 nM | IC50 (MDA-MB-435 [2]): 90 nM | IC50 [11]: > 5000 nM | IC50 [4]: > 5000 nM
SMILES: O=c1c(Br)cc2cnc(Nc3ccc(N4CCNCC4)cn3)nc2n1C1CCCC1

IC50 (MDA-MB-435 [2]): 560 nM
SMILES: O=c1c(CO)cc2cnc(Nc3ccc(N4CCNCC4)cn3)nc2n1C1CCCC1

IC50 (MDA-MB-435 [2]): 70 nM
SMILES: CC(=O)c1c(C)c2cnc(Nc3ccc(N4CCCNCC4)cn3)nc2n(C2CCCC2)c1=O

IC50 (MDA-MB-435 [2]): 1100 nM
SMILES: O=c1c(F)cc2cnc(Nc3ccc(N4CCNCC4)cn3)nc2n1C1CCCC1

IC50 (MDA-MB-435 [2]): 190 nM | IC50 [3]: 19 nM | IC50 [4]: > 5000 nM
SMILES: Nc1cc2cnc(Nc3ccc(N4CCNCC4)cn3)nc2n(C2CCCC2)c1=O

IC50 (MDA-MB-435 [5]): 220 nM
SMILES: CC(=O)c1c(C)c2cnc(Nc3ccc(N4CCOCC4)cn3)nc2n(C2CCCC2)c1=O

IC50 (MDA-MB-435 [2]): 1000 nM
SMILES: CCOCc1cc2cnc(Nc3ccc(N4CCNCC4)cn3)nc2n(C2CCCC2)c1=O

IC50 (MDA-MB-468 [7]): > 3000 nM | IC50 (MDA-MB-435 [2]): 160 nM
SMILES: CC(=O)c1c(C)c2cnc(Nc3ccc(N4CCNCC4)cn3)nc2n(C2CCCC2)c1=O [PALBOCICLIB]

More lines, now with the values behind:

SMILES: O=c1ccc2cnc(Nc3ccccc3)nc2n1C1CCCC1
IC50 [1]: 12 nM

SMILES: COCCN(CCOC)c1ccc(Nc2ncc3c(C)c(C(C)=O)c(=O)n(C4CCCC4)c3n2)nc1
IC50 [3]: 51 nM | IC50 [4]: 2050 nM

SMILES: Cc1c(Br)c(=O)n(C2CCCC2)c2nc(Nc3ccc(N4CC(C)NC(C)C4)cn3)ncc12 (stereo unspecified)
IC50 (MDA-MB-435 [5]): 570 nM

SMILES: O=c1c(Br)cc2cnc(Nc3ccc(N4CCNCC4)cc3)nc2n1C1CCCC1
IC50 ([6]; read-out: IC50): 80 nM | IC50 (MDA-MB-468 [7]): 600 nM | IC50 (MDA-MB-435 [2]): 20 nM

SMILES: CC(=O)c1c(C)c2cnc(Nc3ccc(N4CCN(C)CC4)cn3)nc2n(C2CCCC2)c1=O
IC50 (MDA-MB-435 [2]): 325 nM

SMILES: CC(=O)c1c(C)c2cnc(Nc3ccc(N4C(C)COCC4C)cn3)nc2n(C2CCCC2)c1=O (stereo unspecified)
IC50 [3]: 30 nM | IC50 (MDA-MB-435 [9]): 2040 nM | IC50 [4]: > 5000 nM

SMILES: CC(=O)c1c(C)c2cnc(Nc3ccc(N4CC(C)NC(C)C4)cn3)nc2n(C2CCCC2)c1=O (stereo unspecified)
IC50 (MDA-MB-435 [5]): 570 nM

SMILES: CC(=O)c1c(C)c2cnc(Nc3ccc(N4CCCCC4)cn3)nc2n(C2CCCC2)c1=O
IC50 (MDA-MB-435 [5]): 1930 nM

SMILES: CC(=O)c1c(C)c2cnc(Nc3ccc(N4CCC(N)C4)cn3)nc2n(C2CCCC2)c1=O (stereo unspecified)
IC50 (MDA-MB-435 [2]): 340 nM

SMILES: Cc1c(Br)c(=O)n(C2CCCC2)c2nc(Nc3ccccn3)ncc12
IC50 [3]: > 5000 nM

SMILES: CC(=O)c1c(C)c2cnc(Nc3ccc(N4CCNCC4)cc3)nc2n(C2CCCC2)c1=O
IC50 (MDA-MB-468 [12]): 1100 nM | IC50 (MDA-MB-435 [9]): 30 nM | IC50 [4]: 230 nM

SMILES: CC(=O)c1c(C)c2cnc(Nc3ccc(N4CCNC(C)(C)C4)cn3)nc2n(C2CCCC2)c1=O
IC50 (MDA-MB-435 [5]): 420 nM

SMILES: CC(=O)c1c(C)c2cnc(Nc3ccc(N4CCC(O)CC4)cn3)nc2n(C2CCCC2)c1=O
IC50 (MDA-MB-435 [2]): 200 nM

SMILES: CC(C)n1c(=O)ccc2cnc(Nc3ccc(N4CCNCC4)cn3)nc21
IC50 [3]: > 5000 nM

SMILES: Cc1c(Br)c(=O)n(C2CCCC2)c2nc(Nc3ccc(N4CCCNCC4)cn3)ncc12
IC50 [3]: > 5000 nM | IC50 [4]: > 5000 nM

From ChEMBL document CHEMBL1143566, “Discovery of a potent and selective inhibitor of cyclin-dependent kinase 4/6” (J Med Chem, 2005)
